The record followed here is patent US20150283137A1, “6-oxo-1,6-dihydro-pyridazine derivative for the use for the treatment of hepatocellular carcinoma (HCC)” (MERCK PATENT GMBH, priority 2012, published 2015).

Entries after “also recorded” stand apart in the source; their conditions may differ. Where only a bound is given, the exact number is not on record here.

The subject of one series is MHCC97H tumor fragments. Put plainly: Orthotopic MHCC97H tumor model. The conditions noted are these: 100 mg/kg orally. On the procedure:
Method: In male BalB/c nude mice (7-8 week old) MHCC97H tumor fragments (2-3 mm^3) where orthotopically implanted into the left lobe of the liver. After 1 week of intrahepatic implantation animals were divided into treatment groups (ten animals in one group). Respective groups were administered orally with 3-(1-{3-[5-(1-methyl-piperidin-4-ylmethoxy)-pyrimidin-2-yl]-benzyl}-6-oxo-1,6-dihydro-pyridazin-3-yl)-benzonitrile hydrochloride hydrate at 100 mg/kg/5 days on and 2 days off for 5 weeks. At the end of treatment, tumor size and tumor weight were measured, plasma AFP levels and lung metastases analyzed.

Series [1] has as its system human primary HCC explants. On the procedure:
Method: Male BalB/c nude mice (6-8 week old) where subcutaneously transplanted with a primary HCC tumor fragment. Animals were divided into treatment groups (12 animals in one group) after the tumors were established. Respective groups were administered orally with the 3-(1-{3-[5-(1-methyl-piperidin-4-ylmethoxy)-pyrimidin-2-yl]-benzyl}-6-oxo-1,6-dihydro-pyridazin-3-yl)-benzonitrile hydrochloride hydrate at 100 mg/kg for 5 out of 7 days.

The subject of series [2] is human MHCC97H liver tumor cells. The experiment in a line: Subcutaneous MHCC97H tumor model. The class given is in vivo, mice. The conditions noted are these: for T/C ratio: 5 days on and 2 days on; for anti-tumor activity (in words): established fast growing subcutaneous MHCC97H tumors. As for the experimental part:
Method: Male BalB/c nude mice (6-8 week old) where subcutaneously injected with human MHCC97H liver tumor cells and were divided into treatment groups (ten animals in one group) after the tumors were established (ca. 500 mm^3). Respective groups were administered orally with the 3-(1-{3-[5-(1-methyl-piperidin-4-ylmethoxy)-pyrimidin-2-yl]-benzyl}-6-oxo-1,6-dihydro-pyridazin-3-yl)-benzonitrile hydrochloride hydrate at different doses (10, 30 and 100 mg/kg) for 5 days on and […] or daily with sorafenib (50 mg/kg).

In the case of `CN1CCC(COc2cnc(-c3cccc(Cn4nc(-c5cccc(C#N)c5)ccc4=O)c3)nc2)CC1.Cl.O` [3-(1-{3-[5-(1-methyl-piperidin-4-ylmethoxy)-pyrimidin-2-yl]-benzyl}-6-oxo-1,6-dihydro-pyridazin-3-yl)-benzonitrile hydrochloride hydrate], the tolerability entry in the series with MHCC97H tumor fragments (5 days on and 2 days off for 5 weeks) is reported as “well tolerated”. Moreover, in the series on MHCC97H tumor fragments (5 days on and 2 days off for 5 weeks, end of treatment at day 35, hydrochloride hydrate), the “anti-tumor activity on primary tumor (in words)” value is “complete regression in all mice; also recorded: primary tumor regression (p<0.001)”. The lung metastases entry with MHCC97H tumor fragments (end of treatment) was “reduction lung metastases (p<0.01)”. In addition, the “AFP levels in plasma” value in the series on MHCC97H tumor fragments (end of treatment, hydrochloride hydrate) is recorded as “no AFP was measurable; also recorded: significantly reduced (p<0.001)”. Also, the body weight result in the series with MHCC97H tumor fragments (followed throughout the study) is reported as “no body weight loss could be detected”. In series [1] (all mice), the “tolerability (body weight)” value was “well tolerated in all mice”. The “anti-tumor activity compared with sorafenib monotherapy” value in series [1] (models LIM801 and LIM612 (strong signs of c-Met signaling)) is “better anti-tumor activity than sorafenib monotherapy”. For the same compound, the “further activity in primary explants (in words)” value in series [1] (nine primary explants, besides CR and SD) is “marginal activity in one additional model”. For the same compound, the “complete responses (CR)” value in series [1] (nine subcutaneous established primary explants, 100 mg/kg 5 out of 7 days) is 1/9. Further, the “number of models with significantly inhibited growth” value in series [1] (out of 9 models, 100 mg/kg/5 out of 7 days) turned out to be 4. Moreover, the “tumor growth delay (TGD, time to reach a tumor volume of 1000 mm^3)” value is recorded as 24 days in series [2] (10 mg/kg orally), 53 days in series [2] (30 mg/kg orally) and more than 53 days in series [2] (100 mg/kg orally). Also, the T/C ratio is listed as −57% in series [2] (10 mg/kg orally, end of treatment, tumors ca. 500 mm^3 at start); −93% in series [2] (30 mg/kg orally, end of treatment); −93% in series [2] (100 mg/kg orally, end of treatment). Also, the “anti-tumor activity (in words)” value in series [2] was “completely inhibited growth and induced regressions”.
On to `CNC(=O)c1cc(Oc2ccc(NC(=O)Nc3ccc(Cl)c(C(F)(F)F)c3)cc2)ccn1` [sorafenib, reference compound], for which the “number of models with anti-tumor activity” value in series [1] (out of 9 models, sorafenib 50 mg/kg/5 out of 7 days) was determined as 7. Also, in series [2], the “anti-tumor activity (in words)” value was “marginal anti tumor activity with no tumor regressions”. The compound also showed a T/C value in series [2] (sorafenib 50 mg/kg orally daily, end of treatment) of 27%.
